Measured values reported in ChEMBL document CHEMBL1153181, “SAR of N-phenyl piperidine based oral integrin alpha5beta1 antagonists” (Bioorg Med Chem Lett, 2010).

Columns and labels:
[1] = target: Integrin alpha-IIb/beta-3 (Homo sapiens, UniProt P05106+P08514); assay: Inhibition of integrin alpha2bbeta3 receptor by ELISA; assay type: protein-complex assay
[2] = Metabolic stability in human microsomes assessed as compound remaining at 1 uM after 1 hr; assay type: ADME, Microsome; settings: read-out: Stability
Integrin alpha-5/beta-1 [3] = target: T1, Integrin alpha-5/beta-1 (Homo sapiens, UniProt P05556+P08648); assay: Inhibition of integrin alpha5beta1 receptor by ELISA; assay type: protein-complex assay
Integrin alpha-V/beta-5 = Integrin alpha-V/beta-5 (Homo sapiens, UniProt P06756+P18084); assay: Inhibition of integrin […] receptor by ELISA; assay type: protein-complex assay
Integrin alpha-5/beta-1 [4] = target: T1, Integrin alpha-5/beta-1; assay: Inhibition of integrin alpha5beta1 receptor-mediated HEK293 cell adhesion; assay type: cell-based
Integrin alpha-V/beta-3 = Integrin alpha-V/beta-3 (Homo sapiens, UniProt P05106+P06756); assay: Inhibition of integrin […] receptor by ELISA; assay type: protein-complex assay
Canis familiaris = assay: Hepatic blood flow in Beagle dog at 10 mg/kg, iv administered as bolus dose; assay type: ADME, organism-based, Canis lupus familiaris, Liver; set-up: dose 10 mg/kg, route intravenous; settings: in vivo
[5] = Oral bioavailability in Beagle dog at 10 mg/kg administered as bolus dose; assay type: ADME, organism-based, Canis lupus familiaris; settings: in vivo
[6] = Systemic clearance in Beagle dog at 10 mg/kg, iv administered as bolus dose; assay type: ADME, organism-based, Canis lupus familiaris; set-up: dose 10 mg/kg, route intravenous; settings: in vivo
[7] = Elimination half life in Beagle dog at 10 mg/kg, iv administered as bolus dose; assay type: ADME, organism-based, Canis lupus familiaris; set-up: dose 10 mg/kg, route intravenous; settings: in vivo, read-out: beta t1/2
[8] = Oral bioavailability in rat at 10 mg/kg, po; assay type: ADME, organism-based; settings: in vivo
[9] = Metabolic stability in rat microsomes assessed as compound remaining at 1 uM after 1 hr; assay type: ADME, Microsome; settings: read-out: Stability
[10] = Total body clearance in rat at 1 mg/kg, iv; assay type: ADME, organism-based; set-up: dose 1 mg/kg, route intravenous; settings: in vivo
[11] = Dissociation constant, pKa of the compound; assay type: physicochemical

Integrin alpha-V/beta-3, sequence (P05106 27-788 limits assumed): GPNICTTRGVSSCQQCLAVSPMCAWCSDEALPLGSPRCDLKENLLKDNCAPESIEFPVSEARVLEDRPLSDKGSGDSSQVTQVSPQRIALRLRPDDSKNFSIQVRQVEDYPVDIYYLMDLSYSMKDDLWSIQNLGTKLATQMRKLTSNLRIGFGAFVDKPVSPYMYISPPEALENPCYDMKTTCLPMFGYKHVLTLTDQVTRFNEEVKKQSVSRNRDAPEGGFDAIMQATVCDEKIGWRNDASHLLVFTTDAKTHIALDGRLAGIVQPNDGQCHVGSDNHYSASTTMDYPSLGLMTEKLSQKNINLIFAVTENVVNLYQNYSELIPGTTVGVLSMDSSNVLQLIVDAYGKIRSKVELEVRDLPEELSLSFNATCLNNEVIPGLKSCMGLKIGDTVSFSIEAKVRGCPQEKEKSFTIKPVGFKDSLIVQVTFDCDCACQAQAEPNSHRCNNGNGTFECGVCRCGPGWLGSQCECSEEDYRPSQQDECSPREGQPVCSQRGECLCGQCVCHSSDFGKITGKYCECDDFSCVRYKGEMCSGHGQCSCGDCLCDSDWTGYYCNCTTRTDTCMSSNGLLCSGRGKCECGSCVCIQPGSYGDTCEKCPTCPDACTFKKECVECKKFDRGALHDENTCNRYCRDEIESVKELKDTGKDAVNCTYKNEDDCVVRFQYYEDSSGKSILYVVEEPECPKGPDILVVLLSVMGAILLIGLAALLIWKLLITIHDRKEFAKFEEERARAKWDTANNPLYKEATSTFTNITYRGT
Integrin alpha-V/beta-3, sequence (P06756 31-889 limits assumed): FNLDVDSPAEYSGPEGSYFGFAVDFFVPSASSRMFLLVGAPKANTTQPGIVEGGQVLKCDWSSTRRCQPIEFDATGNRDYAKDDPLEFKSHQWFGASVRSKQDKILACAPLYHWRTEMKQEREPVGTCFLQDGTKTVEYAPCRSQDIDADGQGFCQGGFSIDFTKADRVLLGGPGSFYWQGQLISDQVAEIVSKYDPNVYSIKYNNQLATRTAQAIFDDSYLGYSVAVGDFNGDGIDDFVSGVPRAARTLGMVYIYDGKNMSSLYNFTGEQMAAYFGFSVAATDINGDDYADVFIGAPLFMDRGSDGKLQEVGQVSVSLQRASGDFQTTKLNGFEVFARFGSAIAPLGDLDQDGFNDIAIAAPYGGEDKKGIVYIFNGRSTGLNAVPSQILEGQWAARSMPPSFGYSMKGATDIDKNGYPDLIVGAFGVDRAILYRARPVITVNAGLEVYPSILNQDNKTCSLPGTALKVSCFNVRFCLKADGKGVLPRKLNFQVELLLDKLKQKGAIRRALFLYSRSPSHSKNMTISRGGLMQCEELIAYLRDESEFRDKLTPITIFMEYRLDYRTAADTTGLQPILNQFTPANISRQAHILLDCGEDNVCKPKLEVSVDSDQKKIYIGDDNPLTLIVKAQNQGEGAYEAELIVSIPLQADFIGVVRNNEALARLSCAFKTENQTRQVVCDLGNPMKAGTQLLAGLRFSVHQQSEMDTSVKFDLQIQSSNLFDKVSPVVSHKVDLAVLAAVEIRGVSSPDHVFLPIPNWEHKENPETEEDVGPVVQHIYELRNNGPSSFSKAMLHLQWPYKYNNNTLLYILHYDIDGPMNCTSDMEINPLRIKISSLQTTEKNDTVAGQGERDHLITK
Integrin alpha-V/beta-3, sequence (P06756 891-1048 limits assumed): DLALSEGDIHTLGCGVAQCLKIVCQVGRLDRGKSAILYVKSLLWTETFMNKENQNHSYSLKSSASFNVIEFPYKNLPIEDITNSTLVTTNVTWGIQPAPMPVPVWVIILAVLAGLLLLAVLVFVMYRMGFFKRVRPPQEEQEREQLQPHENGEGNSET
Integrin alpha-IIb/beta-3, sequence (P05106 27-788 limits assumed): as the sequence (P05106 27-788 limits assumed) above
Integrin alpha-IIb/beta-3, sequence (P08514 32-887 limits assumed): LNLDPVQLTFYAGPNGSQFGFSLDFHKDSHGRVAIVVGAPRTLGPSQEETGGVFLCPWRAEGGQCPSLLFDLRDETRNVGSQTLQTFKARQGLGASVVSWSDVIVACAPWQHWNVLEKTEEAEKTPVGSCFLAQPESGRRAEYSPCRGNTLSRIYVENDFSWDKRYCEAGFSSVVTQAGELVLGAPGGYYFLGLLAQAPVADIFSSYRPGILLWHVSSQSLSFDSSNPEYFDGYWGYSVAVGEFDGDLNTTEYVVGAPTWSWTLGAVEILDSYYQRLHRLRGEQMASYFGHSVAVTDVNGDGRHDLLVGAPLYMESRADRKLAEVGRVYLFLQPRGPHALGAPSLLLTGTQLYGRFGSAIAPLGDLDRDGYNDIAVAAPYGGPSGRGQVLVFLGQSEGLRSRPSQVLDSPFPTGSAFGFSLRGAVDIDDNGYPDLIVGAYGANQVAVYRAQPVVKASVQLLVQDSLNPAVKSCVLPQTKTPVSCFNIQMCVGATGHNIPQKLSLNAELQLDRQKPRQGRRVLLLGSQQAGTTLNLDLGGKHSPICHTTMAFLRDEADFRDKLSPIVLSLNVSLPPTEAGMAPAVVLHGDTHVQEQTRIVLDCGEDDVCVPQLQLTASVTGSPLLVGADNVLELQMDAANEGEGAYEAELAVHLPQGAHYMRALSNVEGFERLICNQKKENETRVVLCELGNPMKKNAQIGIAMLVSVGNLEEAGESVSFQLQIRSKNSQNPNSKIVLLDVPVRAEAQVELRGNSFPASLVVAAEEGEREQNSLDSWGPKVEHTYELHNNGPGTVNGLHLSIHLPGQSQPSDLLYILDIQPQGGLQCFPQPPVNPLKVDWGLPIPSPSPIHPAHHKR
Integrin alpha-IIb/beta-3, sequence (P08514 891-1039 limits assumed): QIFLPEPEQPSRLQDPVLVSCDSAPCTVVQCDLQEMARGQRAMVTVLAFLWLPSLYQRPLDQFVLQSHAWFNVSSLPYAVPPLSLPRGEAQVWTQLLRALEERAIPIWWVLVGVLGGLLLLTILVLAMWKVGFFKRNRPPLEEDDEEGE
T1 sequence (P05556 21-798 limits assumed): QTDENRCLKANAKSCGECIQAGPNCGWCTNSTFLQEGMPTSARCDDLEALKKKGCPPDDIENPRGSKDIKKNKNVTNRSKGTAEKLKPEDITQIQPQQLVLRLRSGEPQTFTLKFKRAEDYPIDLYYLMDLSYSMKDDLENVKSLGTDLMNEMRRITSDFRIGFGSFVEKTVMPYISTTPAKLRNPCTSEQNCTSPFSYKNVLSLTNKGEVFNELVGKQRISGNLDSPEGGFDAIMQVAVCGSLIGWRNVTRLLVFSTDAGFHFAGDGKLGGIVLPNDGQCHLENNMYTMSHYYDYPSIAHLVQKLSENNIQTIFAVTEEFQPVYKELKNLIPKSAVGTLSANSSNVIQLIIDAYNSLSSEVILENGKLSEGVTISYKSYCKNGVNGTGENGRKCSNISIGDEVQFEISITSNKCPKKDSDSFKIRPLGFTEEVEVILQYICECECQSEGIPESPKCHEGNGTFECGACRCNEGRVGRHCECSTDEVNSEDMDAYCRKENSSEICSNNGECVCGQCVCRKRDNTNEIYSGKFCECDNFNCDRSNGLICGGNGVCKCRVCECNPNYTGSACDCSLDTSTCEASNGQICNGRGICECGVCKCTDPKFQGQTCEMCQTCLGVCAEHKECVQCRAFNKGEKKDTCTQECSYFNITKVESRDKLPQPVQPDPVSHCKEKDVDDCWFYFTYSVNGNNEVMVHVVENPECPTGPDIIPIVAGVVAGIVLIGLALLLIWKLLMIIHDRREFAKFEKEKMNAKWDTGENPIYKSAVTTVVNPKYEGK
T1 sequence (P08648 42-894 limits assumed): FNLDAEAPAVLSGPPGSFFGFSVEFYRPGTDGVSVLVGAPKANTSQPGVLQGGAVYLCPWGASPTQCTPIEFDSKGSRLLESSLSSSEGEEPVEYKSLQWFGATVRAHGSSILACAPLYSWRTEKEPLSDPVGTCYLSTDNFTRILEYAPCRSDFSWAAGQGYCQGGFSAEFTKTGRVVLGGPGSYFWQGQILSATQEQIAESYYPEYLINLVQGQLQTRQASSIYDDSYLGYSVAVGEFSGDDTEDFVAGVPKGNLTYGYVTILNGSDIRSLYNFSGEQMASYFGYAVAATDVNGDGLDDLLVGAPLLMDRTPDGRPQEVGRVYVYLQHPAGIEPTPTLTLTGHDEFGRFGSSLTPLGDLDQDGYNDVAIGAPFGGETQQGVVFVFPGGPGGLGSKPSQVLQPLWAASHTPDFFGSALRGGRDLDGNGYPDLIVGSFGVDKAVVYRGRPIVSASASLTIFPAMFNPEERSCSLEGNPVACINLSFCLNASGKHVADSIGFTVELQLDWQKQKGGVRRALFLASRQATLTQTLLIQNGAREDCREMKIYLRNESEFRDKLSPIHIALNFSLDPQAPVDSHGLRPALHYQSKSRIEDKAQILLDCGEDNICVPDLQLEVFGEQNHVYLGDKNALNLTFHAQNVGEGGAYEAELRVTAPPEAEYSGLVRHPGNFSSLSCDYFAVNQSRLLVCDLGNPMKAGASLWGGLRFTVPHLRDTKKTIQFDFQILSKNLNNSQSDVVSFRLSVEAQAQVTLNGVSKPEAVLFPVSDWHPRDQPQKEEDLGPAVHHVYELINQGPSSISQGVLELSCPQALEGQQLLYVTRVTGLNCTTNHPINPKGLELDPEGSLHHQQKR
T1 sequence (P08648 895-1049 limits assumed): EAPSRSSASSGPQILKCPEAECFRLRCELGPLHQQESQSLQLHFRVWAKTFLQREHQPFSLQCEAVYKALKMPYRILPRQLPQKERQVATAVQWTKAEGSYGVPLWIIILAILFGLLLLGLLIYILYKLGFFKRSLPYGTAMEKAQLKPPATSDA

SMILES | IC50 [1] | remaining at 1 h, 1 µM [2] | IC50 (Integrin alpha-5/beta-1 [3]) | IC50 (Integrin alpha-V/beta-5) | IC50 (Integrin alpha-5/beta-1 [4]) | IC50 (Integrin alpha-V/beta-3) | LBF (Canis familiaris) | bioavailability [5] | clearance [6] | half-life [7] | bioavailability [8] | remaining at 1 h, 1 µM [9] | clearance [10] | pKa [11]
CCc1cc(F)cc(C)c1C(=O)NC(Cc1ccc(N2CCC(CNc3ccccn3)CC2)cc1)C(=O)O (stereo not given) | 71700 nM | 105% | 2 nM | 11700 nM | 76 nM | 1050 nM | – | – | – | – | – | – | – | –
CCc1cc(F)cc(C)c1C(=O)N[C@@H](Cc1ccc(N2CCC(CNc3ccccn3)CC2)cc1)C(=O)O | 121000 nM | – | 0.9 nM | 12400 nM | 21 nM | 614 nM | 37% | 11% | 11 mL/min/kg | 3.58 h | – | – | – | –
CCc1cc(F)cc(C)c1C(=O)N[C@H](Cc1ccc(N2CCC(CNc3ccccn3)CC2)cc1)C(=O)O | 159000 nM | – | 351 nM | 15600 nM | 6910 nM | 16600 nM | – | – | – | – | – | – | – | –
COc1ccnc(NCC2CCN(c3ccc(CC(NC(=O)c4c(C)cc(C)cc4C)C(=O)O)cc3)CC2)c1 (stereo not given) | – | – | 0.92 nM | 3540 nM | 34 nM | 89 nM | – | – | – | – | 6% | 62% | 110 mL/min/kg | 7.7
Cc1cccc(C)c1C(=O)NC(Cc1ccc(N2CCC(CNc3ccccn3)CC2)cc1)C(=O)O (stereo not given) | 77700 nM | 59% | 1.6 nM | 1870 nM | – | 239 nM | – | – | – | – | – | – | – | –
CCc1cccc(C)c1C(=O)NC(Cc1ccc(N2CCC(CNc3ccccn3)CC2)cc1)C(=O)O (stereo not given) | 87200 nM | 52% | 2.2 nM | 11500 nM | – | 648 nM | – | – | – | – | – | – | – | –
Cc1cc(F)cc(C)c1C(=O)NC(Cc1ccc(N2CCC(CNc3ccccn3)CC2)cc1)C(=O)O (stereo not given) | 105000 nM | 69% | 2.7 nM | 8290 nM | – | 402 nM | – | – | – | – | – | – | – | –
O=C(O)[C@H](Cc1ccc(N2CCC(CNc3ccccn3)CC2)cc1)N1Cc2ccccc2C1=O | 76700 nM | – | 234 nM | 3320 nM | – | 13.4 nM | – | – | – | – | – | – | – | –
Cc1cc(C)c(C(=O)NC(Cc2ccc(N3CCC(CNc4ccccn4)CC3)cc2)C(=O)O)c(C)c1 (stereo not given) | 40200 nM | – | 2.1 nM | 15000 nM | 198 nM | 642 nM | – | – | – | – | 24% | 85% | 16 mL/min/kg | 7
Cc1ccnc(NCC2CCN(c3ccc(CC(NC(=O)c4c(C)cc(C)cc4C)C(=O)O)cc3)CC2)c1 (stereo not given) | 23400 nM | – | – | 10700 nM | 69 nM | – | – | – | – | – | – | 77% | – | 7.5
O=C(N[C@@H](Cc1ccc(N2CCC(CNc3ccccn3)CC2)cc1)C(=O)O)c1ccccc1 | 14800 nM | – | 70 nM | 32.1 nM | – | 4.3 nM | – | – | – | – | – | – | – | –
